Measured values from patent US8742115B2, “Co-crystals and salts of CCR3-inhibitors” (Boehringer Ingelheim International GmbH, priority 2010, dated 2014).
pKi: −log10 of the molar value.

Each compound was assayed against human chemokine receptor CCR3 (Homo sapiens (Human), UniProt P51677) (assay: CCR3 receptor binding assay (SPA, 125I-eotaxin-1)). Settings: human Eotaxin-1 at human CCR3-Rezeptor; membranes of hCCR3-C1 (transfected K562) cells.
Experimental: The CCR3 receptor binding test is based on a K562 cell line (leukemia myelogenic blast cells) transfected with the human chemokine receptor CCR3 (hCCR3-C1 cells). The cell membranes were prepared by disrupting the hCCR3-C1 cells by […]. The preparation was centrifuged at 400 g 4° C. for 30 min. The supernatant was transferred into fresh tubes followed by a second centrifugation at 48000 g, 4° C. for 1 h. The membranes were re-suspended in the SPA incubation buffer (25 mM HEPES, 25 mM MgCl2 6×H2O, 1 mM CaCl2 2×H2O) without bovine serum albumin and homogenized by passing through a single use needle (Terumo, 23Gx1″). The membranes were stored in aliquots at −80° C.
The CCR3 receptor binding assay was performed in a Scintillation Proximity Assay (SPA) design with the radioligand recombinant human ^125Iodine-eotaxin-1. Cell membranes of hCCR3 C1 cells were again homogenized by passing through a single use needle (Terumo, 23Gx1″) and diluted in SPA incubation buffer in suitable concentrations (0.5-10 μg protein/well) in 96 well microtiter plates (1450-514, Perkin Elmer). The SPA assay was set up in the SPA incubation buffer with a final volume of 200 μl and final concentration of 25 mM HEPES, 25 mM MgCl2 6×H2O, 1 mM CaCl2 2×H2O and 0.1% bovine serum albumin. The SPA assay mixture contained 60 μl of the membrane suspension, 80 μl of Wheat Germ Agglutinin coated PVT beads (organic scintillator, GE Healthcare, RPNQ-0001) 0.2 mg/well), 40 μl of recombinant human ^125Jodine-eotaxin-1 (Biotrend), diluted in SPA buffer to a final concentration of 30.000 dpm per well, and 20 μl of the test compound (dissolved in DMSO dilutions). The SPA assay mixture was incubated for 2 h at room temperature. Bound radioactivity was determined with a scintillation counter (Micro Beta “Trilux”, Wallac). Included were controls for total binding (no displacer added, Bo) and non-specific binding (NSB) by adding unlabelled recombinant human Eotaxin-1 (Biotrend, Cat #300-21) or a reference compound.
Determination of the affinity of a test compound was calculated by subtraction of the non-specific binding (NSB) from the total binding (Bo) or the binding in the presence of the test compound (B) at a given compound concentration. The NSB value was set to 100% inhibition. The Bo-NSB value was set to 0% inhibition.

human chemokine receptor CCR3, sequence (P51677 whole entry): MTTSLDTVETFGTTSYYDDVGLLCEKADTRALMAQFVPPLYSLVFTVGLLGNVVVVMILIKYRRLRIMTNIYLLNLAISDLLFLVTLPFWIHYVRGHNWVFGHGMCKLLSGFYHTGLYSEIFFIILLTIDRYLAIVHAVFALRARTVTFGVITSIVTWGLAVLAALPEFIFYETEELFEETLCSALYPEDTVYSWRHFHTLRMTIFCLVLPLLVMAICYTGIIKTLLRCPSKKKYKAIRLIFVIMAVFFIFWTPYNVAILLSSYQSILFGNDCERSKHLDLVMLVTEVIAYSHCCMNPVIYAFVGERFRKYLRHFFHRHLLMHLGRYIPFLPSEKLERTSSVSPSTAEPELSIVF

pKi | Structure (SMILES)
6.71 | CCc1ccnc(NC(=O)[C@H]2CCC(=O)N2C2CCN(Cc3ccc(Cl)c(C)c3)CC2)c1 [Example 5]
8.49 | Cc1cc(C(=O)N(C)C)cc(NC(=O)[C@H]2CCC(=O)N2C2CCN(Cc3ccc(Cl)c(C)c3)CC2)n1 [Example 11]
8.28 | CCC(C)N(C)C(=O)c1cc(C)nc(NC(=O)[C@H]2CCC(=O)N2C2CCN(Cc3ccc(Cl)c(C)c3)CC2)c1 (stereo partly shown) [Example 21]
8.77 | CCN(C)C(=O)c1cc(C)nc(NC(=O)[C@H]2CCC(=O)N2C2CCN(Cc3ccc(Cl)c(C)c3)CC2)c1 [Example 36]
8.07 | Cc1cc(CN2CCC(N3C(=O)CC[C@@H]3C(=O)Nc3cc(C(=O)N(C)C)ccn3)CC2)ccc1Cl [Example 8]
8.40 | CCC(C)NC(=O)c1cc(C)nc(NC(=O)[C@H]2CCC(=O)N2C2CCN(Cc3ccc(Cl)c(C)c3)CC2)c1 (stereo partly shown) [Example 19]
6.64 | COc1cc(C(=O)N(C)C)cc(NC(=O)[C@H]2CCC(=O)N2C2CCN(Cc3ccc(Cl)c(C)c3)CC2)n1 [Example 26]
8.64 | Cc1cc(CN2CCC(N3C(=O)CC[C@@H]3C(=O)Nc3cc(C(=O)N(C)C)cc(C4CC4)n3)CC2)ccc1Cl [Example 32]
8.24 | Cc1cc(C(=O)N(C)C)cc(NC(=O)[C@H]2CCC(=O)N2C2CCN(Cc3ccc(Br)c(C)c3)CC2)n1 [Example 24]
8.34 | Cc1cc(C(=O)NCC(F)F)cc(NC(=O)[C@H]2CCC(=O)N2C2CCN(Cc3ccc(Cl)c(C)c3)CC2)n1 [Example 18]
7.14 | CNC(=O)c1cccc(NC(=O)[C@H]2CCC(=O)N2C2CCN(Cc3ccc(Cl)c(C)c3)CC2)n1 [Example 6]
5.85 | Cc1cc(CN2CCC(N3C(=O)CC[C@@H]3C(=O)N(C)c3ccccn3)CC2)ccc1Cl [Example 14]
7.72 | Cc1cc(CN2CCC(N3C(=O)CC[C@@H]3C(=O)Nc3cc(C(=O)N4CCOCC4)ccn3)CC2)ccc1Cl [Example 13]
9.05 | Cc1cc(C(=O)N2CCCC2)cc(NC(=O)[C@H]2CCC(=O)N2C2CCN(Cc3ccc(Cl)c(C)c3)CC2)n1 [Example 9]
8.08 | CCc1cc(C(=O)N(C)C)cc(NC(=O)[C@H]2CCC(=O)N2C2CCN(Cc3ccc(Cl)c(C)c3)CC2)n1 [Example 25]
7.15 | Cc1cc(C(=O)N(C)C)cc(NC(=O)[C@H]2CCC(=O)N2C2CCN(Cc3ccc(F)c(C)c3)CC2)n1 [Example 30]
6.38 | CCCCc1cc(C(=O)N(C)C)cc(NC(=O)[C@H]2CCC(=O)N2C2CCN(Cc3ccc(Cl)c(C)c3)CC2)n1 [Example 27]
8.33 | Cc1cc(CN2CCC(N3C(=O)CC[C@@H]3C(=O)Nc3cc(C(=O)N4CCCC4)ccn3)CC2)ccc1Cl [Example 12]
8.10 | CCc1cc(CN2CCC(N3C(=O)CC[C@@H]3C(=O)Nc3cc(C(=O)N(C)C)cc(C)n3)CC2)ccc1Cl [Example 33]
7.33 | COc1ccnc(NC(=O)[C@H]2CCC(=O)N2C2CCN(Cc3ccc(Cl)c(C)c3)CC2)c1 [Example 3]

Second part, the compound before the results:

Structure (SMILES) | pKi
Cc1cc(C(=O)NCC(C)C)cc(NC(=O)[C@H]2CCC(=O)N2C2CCN(Cc3ccc(Cl)c(C)c3)CC2)n1 [Example 17] | 8.37
Cc1cc(C(=O)NCC2CC2)cc(NC(=O)[C@H]2CCC(=O)N2C2CCN(Cc3ccc(Cl)c(C)c3)CC2)n1 [Example 15] | 8.46
Cc1cc(C(=O)N2CCC2)cc(NC(=O)[C@H]2CCC(=O)N2C2CCN(Cc3ccc(Cl)c(C)c3)CC2)n1 [Example 16] | 8.17
Cc1cc(C(=O)N(C)C)cc(NC(=O)[C@H]2CCC(=O)N2C2CCN(Cc3ccc(Cl)c(Cl)c3)CC2)n1 [Example 28] | 7.75
Cc1cc(C(=O)N(C)C)cc(NC(=O)[C@H]2CCC(=O)N2C2CCN(Cc3ccc(Cl)c(C(F)(F)F)c3)CC2)n1 [Example 31] | 7.06
C#Cc1cc(C(=O)N(C)C)cc(NC(=O)[C@H]2CCC(=O)N2C2CCN(Cc3ccc(Cl)c(C)c3)CC2)n1 [Example 34] | 8.10
CNC(=O)c1cc(C)nc(NC(=O)[C@H]2CCC(=O)N2C2CCN(Cc3ccc(Cl)c(C)c3)CC2)c1 [Example 7] | 7.98
Cc1ccnc(NC(=O)[C@H]2CCC(=O)N2C2CCN(Cc3ccc(Cl)c(C)c3)CC2)c1 [Example 4] | 7.17
Cc1cc(C(=O)N(C)C)cc(NC(=O)[C@H]2CCC(=O)N2C2CCN(Cc3cc(C)c(Cl)c(C)c3)CC2)n1 [Example 35] | 7.21
CNC(=O)c1ccnc(NC(=O)[C@H]2CCC(=O)N2C2CCN(Cc3ccc(Cl)c(C)c3)CC2)c1 [Example 1] | 7.63
Cc1cc(C(=O)N(C)C(C)C)cc(NC(=O)[C@H]2CCC(=O)N2C2CCN(Cc3ccc(Cl)c(C)c3)CC2)n1 [Example 22] | 8.64
Cc1cc(C(=O)NC2CCC2)cc(NC(=O)[C@H]2CCC(=O)N2C2CCN(Cc3ccc(Cl)c(C)c3)CC2)n1 [Example 23] | 8.38
Cc1cccc(NC(=O)[C@H]2CCC(=O)N2C2CCN(Cc3ccc(Cl)c(C)c3)CC2)n1 [Example 2] | 7.16
Cc1cc(CN2CCC(N3C(=O)CC[C@@H]3C(=O)Nc3cc(C(=O)N(C)C)cc(C(C)C)n3)CC2)ccc1Cl [Example 29] | 8.39
